Data taken from PubChem BioAssay AID330 (DTP/NCI, 2004).
Values joined by “and” are separate entries in the source; they are usually repeats but may differ in a detail not shown here. Equal entries are not always repeated. Inconclusive results and toxic doses are left out. The calls were made as follows: active = survival T/C of 150% or more; inactive = T/C below 125% in these data.

System: P388 leukemia ip, CD2F1 mice, survival T/C
Assay: NCI In Vivo Anticancer Drug Screen. Data for tumor model P388 Leukemia (intraperitoneal) in CD2F1 (CDF1) mice
Conditions: endpoint: median survival time, higher = longer survival
Outline: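 Mice carrying the transplanted tumor received test compound or vehicle. Survival was recorded in each group, and the value is the treated-group measurement divided by that of the vehicle-treated control group.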

[1] = dose: 50.0 mg/kg/injection, schedule: Q01DX009 (ip), vehicle: Klucel (hydroxypropylcellulose) (HPC)
[2] = dose: 100.0 mg/kg/injection, schedule: Q01DX009 (ip), vehicle: Klucel (hydroxypropylcellulose) (HPC)
[3] = dose: 200.0 mg/kg/injection, schedule: Q01DX009 (ip), vehicle: Klucel (hydroxypropylcellulose) (HPC)
[4] = dose: 100.0 mg/kg/injection, schedule: Q01DX009 (ip), vehicle: saline with Tween-80
[5] = dose: 100.0 mg/kg/injection, schedule: Q04DX003 (ip), vehicle: saline with Tween-80
[6] = dose: 200.0 mg/kg/injection, schedule: Q04DX003 (ip), vehicle: saline with Tween-80
[7] = dose: 25.0 mg/kg/injection, schedule: Q01DX009 (ip), vehicle: saline with Tween-80
[8] = dose: 60.0 mg/kg/injection, schedule: Q01DX005 (ip), vehicle: saline
[9] = dose: 120.0 mg/kg/injection, schedule: Q01DX005 (ip), vehicle: saline
[10] = dose: 100.0 mg/kg/injection, schedule: Q04DX002 (ip), vehicle: Klucel (hydroxypropylcellulose) (HPC)
[11] = dose: 200.0 mg/kg/injection, schedule: Q04DX002 (ip), vehicle: Klucel (hydroxypropylcellulose) (HPC)
[12] = dose: 50.0 mg/kg/injection, schedule: Q01DX005 (ip), vehicle: saline with Tween-80
[13] = dose: 100.0 mg/kg/injection, schedule: Q01DX005 (ip), vehicle: saline with Tween-80
[14] = dose: 200.0 mg/kg/injection, schedule: Q01DX005 (ip), vehicle: saline with Tween-80
[15] = dose: 50.0 mg/kg/injection, schedule: Q01DX005 (ip), vehicle: Klucel (hydroxypropylcellulose) (HPC)
[16] = dose: 100.0 mg/kg/injection, schedule: Q01DX005 (ip), vehicle: Klucel (hydroxypropylcellulose) (HPC)
[17] = dose: 200.0 mg/kg/injection, schedule: Q01DX005 (ip), vehicle: Klucel (hydroxypropylcellulose) (HPC)
[18] = dose: 60.0 mg/kg/injection, schedule: Q01DX005 (ip), vehicle: saline with Tween-80
[19] = dose: 120.0 mg/kg/injection, schedule: Q01DX005 (ip), vehicle: saline with Tween-80
[20] = dose: 240.0 mg/kg/injection, schedule: Q01DX005 (ip), vehicle: saline with Tween-80
[21] = dose: 25.0 mg/kg/injection, schedule: Q04DX003 (ip), vehicle: saline with Tween-80
[22] = dose: 50.0 mg/kg/injection, schedule: Q01DX009 (ip), vehicle: saline with Tween-80
[23] = dose: 50.0 mg/kg/injection, schedule: Q04DX003 (ip), vehicle: saline with Tween-80
[24] = dose: 50.0 mg/kg/injection, schedule: Q01DX009 (ip), vehicle: saline

Measured: T/C

C[C@]12CCC[C@@H]3C[C@@]31C[C@@H]([C@@]1(C)CO1)CC2
inactive: dose: 25.0 mg/kg/injection, schedule: Q01DX009 (ip), vehicle: Klucel (hydroxypropylcellulose) (HPC) 98 % of control and 91 % of control | [1] 102 % of control and 106 % of control | [2] 102 % of control and 104 % of control and 88 % of control | [3] 100 % of control and 120 % of control

CS(=O)(=O)OCCCCO
inactive: [4] 100 % of control | [5] 100 % of control | dose: 200.0 mg/kg/injection, schedule: Q01DX009 (ip), vehicle: saline with Tween-80 110 % of control | [6] 100 % of control | dose: 400.0 mg/kg/injection, schedule: Q01DX009 (ip), vehicle: saline with Tween-80 110 % of control | dose: 400.0 mg/kg/injection, schedule: Q04DX003 (ip), vehicle: saline with Tween-80 91 % of control

CN1C2C=CC1c1c(C3=NC(C)(C)CO3)cccc12 (configuration not stated)
inactive: dose: 50.0 mg/kg/injection, schedule: Q01DX005 (ip), vehicle: saline 98 % of control | dose: 100.0 mg/kg/injection, schedule: Q01DX005 (ip), vehicle: saline 103 % of control

O=[N+]([O-])c1ccc(S(=O)(=O)C/C=C/CCl)c([N+](=O)[O-])c1
inactive: dose: 12.5 mg/kg/injection, schedule: Q01DX009 (ip), vehicle: saline with Tween-80 113 % of control | [7] 90 % of control

O=[N+]([O-])c1ccc(OC2OCC(O)C(O)C2O)cc1 (configuration not stated)
inactive: [8] 97 % of control | [9] 88 % of control | dose: 240.0 mg/kg/injection, schedule: Q01DX005 (ip), vehicle: saline 89 % of control

S=C(N/N=C\c1nc2ccccc2c2ccccc12)Nc1ccc(Br)cc1
inactive: [10] 93 % of control | [11] 93 % of control | dose: 400.0 mg/kg/injection, schedule: Q04DX002 (ip), vehicle: Klucel (hydroxypropylcellulose) (HPC) 96 % of control

CCC(/C=C/c1ccccc1)=N\Nc1ccccc1
inactive: [12] 104 % of control | [13] 105 % of control | [14] 104 % of control | dose: 400.0 mg/kg/injection, schedule: Q01DX005 (ip), vehicle: saline with Tween-80 98 % of control

CC(C)C1CCC2(C)C(CCC3C4(C)CCCC32OC4=O)C1 (configuration not stated)
inactive: [15] 104 % of control | [16] 99 % of control | [17] 101 % of control

Cc1n[nH]c(=O)c2[nH]c3ccccc3c12
inactive: [18] 104 % of control | [19] 97 % of control | [20] 96 % of control

CCCCN1COCO[C@H]2CCC[C@@H]21
inactive: [10] 118 % of control | [11] 122 % of control

O=[N+]([O-])c1cccc(SNc2cccc(Cl)c2)c1
inactive: [7] 100 % of control | [21] 90 % of control | [22] 95 % of control | [23] 100 % of control | [4] 104 % of control | [5] 86 % of control | [6] 100 % of control

CSCC(NP1(=O)SC(NN=C(C)C)=NC1(C)C)C(=O)O (configuration not stated)
inactive: [8] 106 % of control | [9] 107 % of control

O=C(O)c1ccc(C(=O)N(CCP(c2ccccc2)c2ccccc2)CCP(c2ccccc2)c2ccccc2)cc1C(=O)O
inactive: [1] 110 % of control | [2] 90 % of control | [3] 94 % of control

C/C(N=NC(=S)N1CCC(C)CC1)=C1\C=CC=CN1O
inactive: [12] 103 % of control | [13] 103 % of control | [14] 108 % of control

O=C1C=CC(=O)C=C1 (tested in a mixture with another compound)
inactive: dose: 1.0 mg/kg/injection, schedule: Q01DX009 (ip), vehicle: saline sonified 100 % of control | dose: 2.0 mg/kg/injection, schedule: Q01DX009 (ip), vehicle: saline sonified 109 % of control | dose: 3.0 mg/kg/injection, schedule: Q01DX009 (ip), vehicle: saline sonified 100 % of control | dose: 6.0 mg/kg/injection, schedule: Q01DX009 (ip), vehicle: saline sonified 100 % of control

CCN(CC)OCC=C(C)CCC=C(C)C (mixture of isomers)
inactive: dose: 100.0 mg/kg/injection, schedule: Q04DX002 (ip), vehicle: saline with Tween-80 111 % of control | dose: 200.0 mg/kg/injection, schedule: Q04DX002 (ip), vehicle: saline with Tween-80 109 % of control | dose: 400.0 mg/kg/injection, schedule: Q04DX002 (ip), vehicle: saline with Tween-80 108 % of control

CC(C)=C/C(C)=N/Nc1ccc([N+](=O)[O-])cc1[N+](=O)[O-]
inactive: [21] 100 % of control | [23] 100 % of control | [5] 100 % of control

O=C1C=CC(=O)c2cc(Cl)c(Cl)cc21
inactive: dose: 4.12 mg/kg/injection, schedule: Q01DX009 (ip), vehicle: saline with Tween-80 109 % of control | dose: 6.25 mg/kg/injection, schedule: Q01DX009 (ip), vehicle: saline with Tween-80 113 % of control | dose: 6.25 mg/kg/injection, schedule: Q04DX003 (ip), vehicle: saline with Tween-80 91 % of control | dose: 12.5 mg/kg/injection, schedule: Q04DX003 (ip), vehicle: saline with Tween-80 91 % of control

COC(=O)CCC1=C(OC)C(=O)C(OC)=CC1=O
inactive: [22] 112 % of control | [4] 100 % of control

COCCCN(Cc1cc(OC)c(OC)c(OC)c1)C(=S)Nc1cccc(SC)c1
inactive: [24] 101 % of control | dose: 100.0 mg/kg/injection, schedule: Q01DX009 (ip), vehicle: saline 100 % of control | dose: 200.0 mg/kg/injection, schedule: Q01DX009 (ip), vehicle: saline 99 % of control

CCOc1cc2c(cc1C(C)(C)c1ccccc1)OCO2
inactive: [12] 99 % of control | [13] 92 % of control | [14] 96 % of control

COc1c(O)ccc(C2=Cc3ccc(O)cc3OC2)c1OC
inactive: dose: 25.0 mg/kg/injection, schedule: Q01DX005 (ip), vehicle: Klucel (hydroxypropylcellulose) (HPC) 99 % of control | [15] 98 % of control | [16] 109 % of control | [17] 106 % of control

ON=C1c2cc(Cl)ccc2-c2ccc(Cl)cc21
inactive: dose: 6.25 mg/kg/injection, schedule: Q01DX009 (ip), vehicle: saline 100 % of control | dose: 12.5 mg/kg/injection, schedule: Q01DX009 (ip), vehicle: saline 97 % of control | dose: 25.0 mg/kg/injection, schedule: Q01DX009 (ip), vehicle: saline 94 % of control | [24] 90 % of control

CC1=CC(=O)[C@@H](O)[C@]2(C)[C@H]3[C@@]4(O)OC[C@]35[C@H]([C@@H](C)[C@H]4O)[C@@H](OC(=O)CC(C)C)C(=O)O[C@@H]5C[C@@H]12
inactive: dose: 0.5 mg/kg/injection, schedule: Q01DX005 (ip), vehicle: saline + alcohol 104 % of control and 122 % of control | dose: 1.0 mg/kg/injection, schedule: Q01DX005 (ip), vehicle: saline + alcohol 112 % of control

Cc1cc2[nH]c3c(C#N)c(OC(=O)N(C)C)c(-c4ccccc4)c(=O)n3c2cc1C
inactive: [18] 97 % of control | [19] 90 % of control | [20] 92 % of control
